The values that follow come from patent US20250215071A1, “Novel Mcl-1 inhibitor and combination of Mcl-1 and a BH3 mimetic, such as a Bcl-2 inhibitor” (NETRIS PHARMA, priority 2022, published 2025).

Residues, ends and D or L forms follow the SMILES beside them. *: point of attachment. Cbz = O=C(OCc1ccccc1)*

Common to all, as to format: cell-based, Human
Experiment [1] has as its system HeLa UNC5B cells. Kind of experiment: UNC5B-induced DNA fragmentation in HeLa UNC5B cells. Conditions: doxycycline-induced UNC5B; 18 hours. As for the experimental part: FIG. 2. CRISPR-Cas9 screening identifies genes and molecular pathways involved in UNC5B-induced cell death. Related to FIG. 1. (A): UNC5B induction upon treatment with doxycycline. Stable HCT116 cells, inducible for UNC5B, were treated with the indicated concentrations of doxycycline (Dox). 24 hours later, protein levels of FLAG-UNC5B and GAPDH, used as housekeeping gene, were assessed by western blot. (B): UNC5B induction upon treatment with doxycycline on Hela cells. Stable Hela cells inducible for UNC5B (HeLa UNC5B) were treated with the indicated doses of Dox for 18 hours. Protein levels of His-UNC5B and β-actin, used as housekeeping gene, were measured by western blot. (C,D,E): Induction of UNC5B triggers apoptotic cell death in HCT116 cells. Stable HCTT16 cells inducible for human UNC5B were treated with Dox. To assess cell death, propidium iodide (PI) incorporation was followed in real-time up to 36 hours, using an Incucyte Zoom technology (n=3, ** p<0.01, Kolmogorov Smirnov test) (C). Apoptosis was assessed 18 hours after Dox treatment by DNA fragmentation through flow cytometry ([…] (D) and by caspase-3 activity (E), quantified by fluorometric detection kit (n=3, *p<0.05, ** p<0.01, *** p<0.001, Ordinary two-way ANOVA). Values are given as means±SEM. (F): Caspase inhibition rescues apoptosis triggered by UNC5B. HeLa UNC5B cells were treated with Dox and the pan-caspase inhibitor […] (QVD). 18 hours later, DNA fragmentation was evaluated by flow cytometry (n=3, **** p<0.0001, ordinary two-way ANOVA with Šidák's multiple comparisons test). Values are given as means±SEM. […] The number of guides showing an increase in reads compared to control condition is shown for each gene.
FIG. 4. […] 18 hours after treatment, apoptosis was measured by DNA fragmentation (A) and caspase-3 activity (B) (n=3-4, **** p<0.0001, ordinary two-way ANOVA with Tukey's multiple comparisons test). […] Protein levels of Mcl-1, Bcl-2 and Bcl-XL, as well as of UNC5B and B-actin, used as housekeeping gene, were evaluated by western blot. […]

The test system of experiment [2] is caspase-3. Briefly: UNC5B-induced caspase-3 activity in HeLa UNC5B cells. As to conditions: doxycycline 2 μg/mL; 18 hours.
Procedure: Caspase-3 and -9 activity assays were performed as described previously (Paradisi et al., 2013; Paradisi et al., 2009). Briefly, HCT116 and HeLa cells were seeded and treated as for DNA fragmentation assay. Cells were then collected and caspase-3/caspase 9 activity assays were performed using the Caspase-3/Caspase-9 Fluorometric Assay Kit (BioVision, Milpitas, CA, USA), according to the manufacturer's instructions. Caspase activity (activity/min/mg of protein) was calculated from a 1 h kinetic cycle reading on a spectrofluorometer (405 nm/510 nm, Infinite F500, Tecan, Männedorf, Switzerland).
Experiment [3] deals with caspase-9. Briefly: UNC5B-induced caspase-9 activity in HeLa UNC5B cells. As to conditions: Dox; 18 hours. As for the experimental part: FIG. 5. UNC5B-mediated Mcl-1 degradation induces MOMP and caspase-9 activation. (A): UNC5B over-expression triggers Mitochondrial Outer Membrane Permeabilization (MOMP) in a COMMD2/CRL3 complex-dependent manner. Hela cells were transfected with scramble (siCTRL), COMMD2 (siCOMMD2-1) or RBX1 (siRBX1-1) siRNAs. 24 hours after transfection, cells were treated with Dox and after further 18 hours mitochondrial depolarization quantified by 5′,6,6′-tetrachloro-1,1′,3,3′-tetraethylbenzimi-dazolylcarbocyanine iodide (JC-1) dye staining, using NucleoCounter NC3000 (n=3, **** p<0.0001, ordinary two-way ANOVA with Tukey's multiple comparisons test). Values are given as means±SEM. (B,C,D): Apoptotic cell death induced by UNC5B over-expression requires caspase-9. HeLa UNC5B cells were transfected with scramble (siCTRL) or caspase-9 (siCASP9) siRNAs and 24 hours later treated with the indicated concentrations of Dox. Propidium iodide (PI)-positive cells were assessed in real-time up to 48 hours using Incucyte Zoom instrument (C) (n=[…], Kolmogorov-Smirnov test). DNA fragmentation was assessed by FACS analysis (D) and caspase-3 was measured using caspase-3 fluorometric kit (E), both 18 hours after treatment (n=[…], **** p<0.0001, ordinary two-way ANOVA with Šidák's multiple comparisons test). Values are given as means±SEM. […] HeLa UNC5B cells were treated with Dox and 18 hours later caspase-9 and -8 activities were assessed by fluorometric kit, using specific substrates (n=3, ^nsp>0.05, *p<0.05, Mann-Whitney test, one-tailed). […] 24 hours later, cells were treated with Dox and caspase-9 activity was measured by fluorometric kit (n=3, **** p<0.0001, ordinary two-way ANOVA with Tukey's multiple comparisons test). […] 18 hours after treatment, caspase-9 activity was assessed with the fluorometric kit (n=5, *p<0.05, ** p<0.01, *** p<0.001, **** p<0.0001, ordinary two-way ANOVA with Tukey's multiple comparisons test). […] Cells were then treated with Dox and Mcl-1 protein was evaluated by western blot. […]

Experiment [4] deals with Mcl-1. Kind of experiment: Mcl-1 protein levels by western blot in HeLa UNC5B cells. Conditions: endogenous Mcl-1; 2 μg/mL Dox; BTZ 1 μM, QVD 10 µM; 16 hours. As for the experimental part: FIG. 4. UNC5B triggers proteasomal degradation of Mcl-1. (A,B): UNC5B-induced apoptosis requires proteasome activity. Stable Hela cells inducible for UNC5B (HeLa UNC5B) were treated with doxycycline (Dox) at 2 μg/mL, in combination with the indicated doses of the proteasome inhibitors MG132 and bortezomib (BTZ). 18 hours after treatment, apoptosis was measured by DNA fragmentation (A) and caspase-3 activity (B) (n=3-4, **** p<0.0001, ordinary two-way ANOVA with Tukey's multiple comparisons test). Values are given as means±SEM Treatment with proteasome inhibitors was sufficient to strongly reduce apoptosis induction upon UNC5B over-expression. (C): UNC5B triggers Mcl-1 degradation. HeLa UNC5B cells were treated with 2 μg/mL of Dox, in combination with bortezomib (BTZ, 1 μM) and the pan-caspase inhibitor Q-VD-OPh (QVD, 10 µM) inhibitors. 16 hours after treatment, cells were lysed by scraping and sonication in SDS-containing buffer. Protein levels of Mcl-1, Bcl-2 and Bcl-XL, as well as of UNC5B and B-actin, used as housekeeping gene, were evaluated by western blot. […] UNC5B over-expression specifically promoted Mcl-1 protein decrease. […] (D): Mcl-1 degradation induced by UNC5B requires COMMD2/CRL3 complex. HeLa UNC5B cells were transfected with scramble (siCTRL), COMMD2 (siCOMMD2) or RBX1 (siRBX1) siRNAs. […] Protein levels of Mcl-1, UNC5B and Ku80, used as housekeeping protein, were evaluated by western blot. […] Stable HeLa UNC5B cells, constitutively expressing Mcl-1 or empty vector, were treated with doxycycline and apoptosis was evaluated 18 hours later by DNA fragmentation (n=3, ^nsp>0.05, ordinary two-way ANOVA with Sidak's multiple comparisons test). […] Stable HeLa UNC5B cells, constitutively expressing Mcl-1, Bcl-2 or Bcl-XL were treated with Dox and protein levels were evaluated as described in (C). […] 18 hours later, protein levels of Mcl-1, UNC5B and β-actin, used as housekeeping gene, were evaluated by western blot. […] Cells were harvested at the indicated times after CHX treatment, and protein levels were assessed by western blot. […]

In the case of `CC(C)C[C@@H](C=O)NC(=O)[C@H](CC(C)C)NC(=O)[C@H](CC(C)C)NC(=O)OCc1ccccc1` [MG132] (Cbz-Leu-Leu-Leu-aldehyde), the “UNC5B-induced apoptosis (DNA fragmentation)” value in experiment [1] is reported as “suppressed”. Further, the “UNC5B-induced caspase-3 activation” value in experiment [2] is recorded as “suppressed”. In addition, the “UNC5B-induced caspase-9 activation” value in experiment [3] is listed as “sufficient to prevent UNC5B-induced caspase-9 activation”.
With `CC(C)[C@H](NC(=O)c1ccc2ccccc2n1)C(=O)N[C@@H](CC(=O)O)C(=O)COc1c(F)cccc1F` [Q-VD-OPh], the “UNC5B-induced apoptosis (DNA fragmentation)” value in experiment [1] is reported as “completely prevented apoptosis induction”. Besides, the “Mcl-1 protein levels / degradation triggered by UNC5B” value in experiment [4] was “not sufficient to prevent Mcl-1 degradation”.
